For 81 compounds, RP-LC retention time results are on record in the METLIN SMRT retention time set (Domingo-Almenara et al. 2019).

A short description of this data set: gradient 5% acetonitrile 3 min, to 50% in 2 min, to 85% in 15 min, held 3 min, 100 µL/min. To be noted: column: Zorbax Extend-C18 2.1 x 50 mm; eluents: water / acetonitrile, 0.1% formic acid. In a few lines: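 Using water and acetonitrile that each contained 0.1% formic acid, mixtures of ~100 pure standards were separated at 100 μL/min on a Zorbax Extend-C18 column (2.1 × 50 mm, 1.8 μm). The HPLC fed a quadrupole time-of-flight mass spectrometer working in positive and negative ionization mode, with dead and dwell volumes of 40 μL and 900 μL. Data were acquired over 3 months. Retention time was read from computationally picked adduct peaks after manual inspection of each.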
With `CCc1ccccc1NC(=O)CSc1nccc(N2CCN(c3cc(C)ccc3C)CC2)n1`, the RP-LC retention time stood at 1060 s.

`CC1(C)Cc2cccc(OCC(=O)Nc3cccc(-c4ccn[nH]4)c3)c2O1` registered an RP-LC retention time of 775 s.

The compound `Cc1cc(C)cc(NC(=O)NCCc2cn(CC(C)C)c3ncccc23)c1` showed an RP-LC retention time of 905 s.

The compound `CC1CCN(c2ncc(C(=O)O)c(-c3ccncc3)n2)CC1` came in with an RP-LC retention time of 683 s.

Consider `CCNC(=O)C1CCc2sc(C(=O)N3CCOCC3)cc2C1` (stereo unspecified), for which the RP-LC retention time turned out to be 632 s.

In turn, `COc1ccc(OC)c(NC(=O)C2CCCN2S(=O)(=O)c2cc3c(cc2C)NC(=O)C(C)O3)c1` (stereo unspecified) yielded an RP-LC retention time of 830 s.

`CC1CCCCN1CCCNC(=O)Cn1c(=O)c2cccn2c2ccc(F)cc21` (stereo unspecified): the RP-LC retention time is 611 s.

Consider `CCc1ccc(OCC(=O)Nc2nnc(SCc3nnc(-c4ccccc4)o3)s2)cc1`, for which the RP-LC retention time turned out to be 1010 s.

`CCn1c(=O)c(N2CCCC(C(=O)N3CCCCCC3)C2)nc2cccnc21` (stereo unspecified) showed an RP-LC retention time of 1000 s.

In turn, `CCOC(=O)Cc1csc2nc(-c3ccccc3)nn12` came in with an RP-LC retention time of 960 s.

`CCn1nccc1C(=O)N1CCCC1c1ccccc1C` (stereo unspecified) gave an RP-LC retention time of 836 s.

Compound `CCNC(=O)C1CCN(Cc2cc3ccccc3n2Cc2ccc(C)cc2)CC1` returned an RP-LC retention time of 724 s.

With `CCN1c2ccc(F)cc2C(=O)NC12CCN(C(=O)c1ccc(OC)cc1C)CC2`, the RP-LC retention time was determined as 802 s.

For `Nc1cc(C2CCN(C(=O)COc3ccc(F)cc3)CC2)no1`, the RP-LC retention time came to 656 s.

As for `Cc1ccc(N2CCN(c3nccn4c(=O)n(CC(=O)Nc5ccc(C)c(Cl)c5)nc34)CC2)cc1`, the RP-LC retention time turned out to be 1060 s.

For the compound `COc1ccc(NS(=O)(=O)c2ccc3c(c2)CCCC(=O)N3)cc1Cl`, the RP-LC retention time is 738 s.

Turning to `CC(C)N1CCn2c(nc3cc(C(=O)NCc4ccc5c(c4)OCO5)ccc32)C1=O`, the RP-LC retention time worked out at 680 s.

For the compound `Cc1ccsc1CN1CCn2nnc(CCC(=O)N3CCOCC3)c2C1`, the RP-LC retention time amounted to 628 s.

For `O=C(NC1CCCC1)c1c[nH]c2ncccc12`, the RP-LC retention time came out at 625 s.

`CCCn1cc(-c2ccncc2)cc1C(=O)NC1CCN(Cc2ccccc2)CC1` returned an RP-LC retention time of 561 s.

On to `O=C(CSc1nnc2c(=O)n(-c3ccc(F)cc3)ccn12)c1ccc(F)cc1`, for which the RP-LC retention time came to 802 s.

In turn, `CCSc1nnc(NC(=O)CSc2nnc(-c3ccco3)o2)s1` showed an RP-LC retention time of 726 s.

With `Cc1noc(C)c1C1CCCN1C(=O)Cc1cccc(F)c1` (stereo unspecified), the RP-LC retention time stood at 777 s.

The compound `CCCn1c(C)cnc1C1CN(S(=O)(=O)c2cc(Cl)ccc2Cl)C1` had an RP-LC retention time of 607 s.

`C[C@H](CCC(=O)NCCS(=O)(=O)O)[C@H]1CC[C@H]2[C@@H]3[C@H](O)C[C@@H]4C[C@H](O)CC[C@]4(C)[C@H]3C[C@H](O)[C@]12C`: the RP-LC retention time was found to be 665 s.

For `CCN(CCNC(=O)C12CCCC=C1N(Cc1ccccc1)C(=O)CC2)Cc1ccccc1` (stereo unspecified), the RP-LC retention time was 603 s.

Compound `O=S(=O)(c1ccc(Cl)cc1)N1CCN(c2cnn3c(C4CC4)nnc3c2)CC1` showed an RP-LC retention time of 749 s.

Regarding `O=C(CSCc1ccccc1)NCCNC(=O)c1ccc(NC(=O)C2CC2)cc1`, the RP-LC retention time is 683 s.

In turn, `CCOCCCNC(=O)N1CCC(c2cc(N)on2)CC1` had an RP-LC retention time of 601 s.

`O=C(Cn1nc(N2CCCCCC2)c2ccccc2c1=O)Nc1ccccc1`: the RP-LC retention time was 1050 s.

`CCn1nnc(NCc2ccc(-c3ccc(Br)cc3Cl)o2)n1` displayed an RP-LC retention time of 1120 s.

Compound `Cn1c(=O)c(=O)n(C)c2cc(N3CCCCC3)c(NC(=O)CN3CCCCC3)cc21` registered an RP-LC retention time of 592 s.

For the compound `CCN1C(=O)C2(CCN(S(=O)(=O)c3cc(F)ccc3C)CC2)c2ccccc21`, the RP-LC retention time is 1130 s.

With `O=C(Nc1cc(-c2ccccn2)no1)c1cccc(Br)c1`, the RP-LC retention time was 894 s.

Take `Cc1ccc(NC(=O)Cn2nc(C(=O)N3CCCC3)c3ccccc32)cc1F`: the RP-LC retention time is 884 s.

In turn, `CCCn1ccc2sc(C)c(C(=O)NCc3ccc(Cl)cc3)c2c1=O` had an RP-LC retention time of 985 s.

In turn, `CC(C)(C)NC(=O)C(=O)c1c(-c2ccccc2)cc2ccccn12` registered an RP-LC retention time of 948 s.

With `CC(=O)Nc1onc(C)c1-c1ccc(C)c(S(=O)(=O)NCCc2ccc(S(N)(=O)=O)cc2)c1`, the RP-LC retention time came out at 663 s.

Turning to `O=C(NCC1CCN(Cc2cccs2)CC1)C1(c2ccccc2)CCOCC1`, the RP-LC retention time came out at 578 s.

With `Cn1nc(-c2nc(-c3ccccc3F)no2)c2c1CCN(C(=O)C1CCCO1)C2` (stereo unspecified), the RP-LC retention time is 770 s.

Compound `CCc1nc2cc(-c3noc(-c4ccccc4F)n3)ccc2o1` gave an RP-LC retention time of 1140 s.

`O=C(NCc1ccc(Cl)cc1)C1CCN(c2cn[nH]c(=O)c2)CC1` gave an RP-LC retention time of 669 s.

In the case of `CCOCCCNCc1ccc(-c2cc(Cl)ccc2Cl)o1`, the RP-LC retention time is 753 s.

Regarding `CCc1c(CN2CCN(c3ccccn3)CC2)csc1C`, the RP-LC retention time worked out at 596 s.

As for `NC(=O)C1CCN(C(=O)c2cccc(NC(=O)c3nsc4ccccc34)c2)CC1`, the RP-LC retention time was found to be 703 s.

Compound `C#CCSc1nc2ccccc2c2nc(-c3ccncc3)nn12` came in with an RP-LC retention time of 977 s.

As to `Cc1nc(N2CCCC2)c2c(C(=O)Nc3cccc(F)c3)c(C)oc2n1`, the RP-LC retention time came to 784 s.

In turn, `CCOc1ccc(C(C)NC(=O)c2cn3c(n2)CN(CC(C)C)CC3)cc1` (stereo unspecified) had an RP-LC retention time of 640 s.

The compound `CC(=O)N1CCC(C(=O)N2CCC3(CC2)NCc2ccccc2-n2ccnc23)CC1` yielded an RP-LC retention time of 564 s.

`O=C1NCCCn2cc(S(=O)(=O)Nc3ccc(F)c(Cl)c3)cc21`: the RP-LC retention time was 686 s.

On to `O=C(C1=CN(c2ccccc2)c2cc(Cl)ccc2S1(=O)=O)N1CCCCC1`, for which the RP-LC retention time came to 930 s.

As to `Cc1ccc(CCNC(=O)c2cc3sccc3n2Cc2ccc(F)cc2)cc1`, the RP-LC retention time worked out at 702 s.

In the case of `Cc1cc(-c2ccc(S(=O)(=O)N3CCC(C(=O)NCCC(C)C)CC3)o2)n[nH]1`, the RP-LC retention time turned out to be 783 s.

`COc1cccc(Cn2c(N3CCSCC3)nc(C)cc2=O)c1` had an RP-LC retention time of 869 s.

The compound `COC(=O)c1cc(OCC(=O)NCc2ccc3c(c2)OCO3)c2ccccc2n1` showed an RP-LC retention time of 739 s.

Regarding `O=C(Cn1ccc2sccc2c1=O)Nc1cc(F)cc(F)c1`, the RP-LC retention time was 784 s.

In the case of `CN1CCN(c2nc3cc(C(F)(F)F)ccc3n3cccc23)CC1`, the RP-LC retention time is 768 s.

On to `CC(C)CCNC(=O)C1CCN(c2nc3ccsc3c(=O)n2-c2ccccc2)CC1`, for which the RP-LC retention time turned out to be 838 s.

For the compound `CCc1cccc(NS(=O)(=O)c2cc3n(c2)CCN(CC)C3=O)c1`, the RP-LC retention time worked out at 762 s.

`CCOc1ccc(CC(=O)OCn2nnc3ccccc3c2=O)cc1` yielded an RP-LC retention time of 914 s.

Take `CCOC(=O)C1CCCN(CC(O)COc2ccccc2Br)C1` (stereo unspecified): the RP-LC retention time is 590 s.

Compound `Cc1ccc(C)c(N2CCN(c3ccnc(SCC(=O)Nc4ccc(F)cc4C)n3)CC2)c1` displayed an RP-LC retention time of 1010 s.

With `COc1ccc(N2CC(C(=O)N3CC4CC3C(=O)O4)CC2=O)cc1` (stereo unspecified), the RP-LC retention time was 598 s.

In the case of `O=C(NCc1ccncc1)c1sc2ncccc2c1-n1cccc1`, the RP-LC retention time came to 592 s.

On to `CC(C)CNC(=O)CCc1nc2ccccc2n(CC(=O)NCc2ccccc2Cl)c1=O`, for which the RP-LC retention time stood at 822 s.

On to `CC(C)NC(=O)Nc1cc2c(cc1N1CCOCC1)n(C)c(=O)n2C`, for which the RP-LC retention time is 634 s.

As to `CCCCS(=O)(=O)c1cc2c(cc1NC(=O)c1ccccc1)n(C)c(=O)n2C`, the RP-LC retention time stood at 887 s.

With `Cc1cc(-c2c(C)sc(C)c2S(=O)(=O)N2CCN(c3ccccc3F)CC2)n[nH]1`, the RP-LC retention time is 971 s.

As to `Cc1cc(NC(=O)NCCCSc2nc3ccccc3s2)no1`, the RP-LC retention time was determined as 805 s.

In turn, `CC1CCc2c(sc(NC(=O)Cc3ccc4c(c3)OCO4)c2C#N)C1` (stereo unspecified) gave an RP-LC retention time of 1070 s.

With `CCCCCC(=O)Nc1cc(-c2nc3ccccc3[nH]2)ccc1C`, the RP-LC retention time turned out to be 712 s.

Take `O=C(Cn1nc(N2CCSCC2)c2ccccc2c1=O)Nc1ccccc1Cl`: the RP-LC retention time is 979 s.

`CCN1C(=O)Cc2ccccc2C1C(=O)NCc1ccco1` (stereo unspecified) registered an RP-LC retention time of 690 s.

Regarding `CN1CCn2cc(S(=O)(=O)Nc3ccc(F)cc3F)cc2C1=O`, the RP-LC retention time was 671 s.

Compound `O=C(c1ccncc1)N1CCCN(c2cc(-c3ccc4c(c3)OCO4)[nH]n2)CC1` showed an RP-LC retention time of 605 s.

`O=C(c1ccc(Br)o1)N1CCC(c2nnc(-c3ccco3)s2)CC1` displayed an RP-LC retention time of 765 s.

As for `Cc1cccc(-c2nnc(-c3ccc(Cl)c(S(=O)(=O)N4CCCC4)c3)o2)c1`, the RP-LC retention time came out at 1150 s.

Take `Cc1cccc(C(=O)N2C[C@@H](F)C[C@H]2C(=O)N2CCOCC2)c1`: the RP-LC retention time is 620 s.

In turn, `N#Cc1cccc(Cn2cc(S(=O)(=O)N3CCCCC3)ccc2=O)c1` had an RP-LC retention time of 842 s.

The compound `O=C(c1cc(-c2ccc(F)c(F)c2)on1)N1CCC(Cn2cccn2)CC1` displayed an RP-LC retention time of 797 s.

With `Cc1ccc(-c2noc(CSc3nc4cc5c(cc4c(=O)n3Cc3ccncc3)OCO5)n2)cc1`, the RP-LC retention time worked out at 845 s.
